Assay [1] deals with kochia. Description: Test E pre-/postemergence herbicide test. The class given is in vivo, Kochia scoparia. An excerpt: (§1) Seeds of plant species selected from bipinnate beggarticks (Bidens bipinnata L.), hairy beggarticks (Bidens radiata Thuill.), bermudagrass (Cynodon dactylon (L.) Pers.), Surinam grass (Urochloa decumbens (Staph) R. D. Webster, previously named Brachiaria decumbens Stapf), large crabgrass (Digitaria sanguinalis (L.) Scop.), green foxtail (Setaria viridis (L.) P. Beauv.), goosegrass (Eleusine indica (L.) Gaertn.), johnsongrass (Sorghum halepense (L.) Pers.), kochia (Kochia scoparia (L.) Schrad.), pitted morningglory (Ipomoea lacunosa L.), purple nutsedge (Cyperus rotundus L.), common ragweed (Ambrosia elatior L.), mustard (Brassica nigra (L.) W. D. J. Koch), guineagrass (Panicum maximum Jacq.), dallisgrass (Paspalum dilatatum Poir.), barnyardgrass (Echinochloa crus-galli (L). P. Beauv.), southern sandbur (Cenchrus echinatus L.), common sowthistle (Sonchus oleraceous L.), prickly sida (Sida spinosa L.), Italian ryegrass (Lolium multiflorum Lam.), common purslane (Portulaca oleracea L.), broadleaf signalgrass (Brachiaria platyphylla (Griseb.) Nash), common groundsel (Senecio vulgaris L.), common chickweed (Stellaria media (L.) Vill/Cyr.), tropical spiderwort (Commelina benghalensis L.), annual bluegrass (Poa annua L.), downy bromegrass (Bromus tectorum L.), itchgrass (Rottboellia cochinchinensis (L.) L.f.), quackgrass (Elytrigia repens (L.) Nevski), Canada horseweed (Erigeron Canadensis L.), field bindweed (Convolvulus arvensis L.), spotted spurge (Euphorbia maculata L.), common mallow (Malva sylvestris (=s silvestris) L.), and Russian thistle (Salsola kali L. ssp. Ruthenica (Iljin) Soo) were planted and treated preemergence with test chemicals formulated in a non-phytotoxic solvent mixture which included a surfactant.
(§2) At the same time, plants selected from these weed species were treated with postemergence applications of some of the test chemicals formulated in the same manner. Plants ranged in height from 2 to 18 cm (1- to 4-leaf stage) for postemergence treatments. Treated plants and controls were maintained in a greenhouse for 12 to 14 days, after which time all species were compared to controls and visually evaluated. Plant response ratings, summarized in Table E, are based on a scale of 0 to 100 where 0 is no effect and 100 is complete control. A dash (-) response means no test result.

The next assay deals with annual blugrass. Description: Test F pre-/postemergence herbicide test. Type of assay: in vivo, Poa annua. An excerpt: (§3) Seeds of plant species selected from annual blugrass (Poa annua L.), blackgrass (Alopecurus myosuroides Huds.), catchweed bedstraw (Gallium aparine L.), common chickweed (Stellaria media (L.) Vill./Cyr.), downy bromegrass (Bromus tectorum L.), green foxtail (Setaria viridis (L.) Beauv.), Italian ryegrass (Lolium multiflorum Lam.), kochia (Kochia scoparia (L.). Schrad.), lambsquarters (Chenopodium album L.), littleseed canarygrass (Phalaris minor Retz.), pigweed (Amaranthus retroflexus L.), Russian thistle (Salsola kali L. ssp. Ruthenica (Iljin) Soo), wild buckwheat (Polygonum convolvulus L.), wild mustard (Sinapis arvensis L.), wild oat (Avena fatua L.), windgrass (Apera spica-venti (L.) Beauv.), winter barley (Hordeum vulgare L.), and wheat (Triticum aestivum L.) were planted and treated preemergence with test chemicals formulated in a non-phytotoxic solvent mixture which included a surfactant.
(§4) At the same time, plants selected from these crop and weed species were treated with postemergence applications of some of the test chemicals formulated in the same manner. Plants ranged in height from 2 to 18 cm (1- to 4-leaf stage) for postemergence treatments. Treated plants and controls were maintained in a greenhouse for 12 to 14 days, after which time all species were compared to controls and visually evaluated. Plant response ratings, summarized in Table F, are based on a scale of 0 to 100 where 0 is no effect and 100 is complete control. A dash (-) response means no test result.

For assay [2], the system named is kochia. Briefly: Test F pre-/postemergence herbicide test. The class given is in vivo, Kochia scoparia.
Text: as §3, §4

The next assay has as its system winter barley. Description: Test F pre-/postemergence herbicide test. The class given is in vivo, Hordeum vulgare.
Text: as §3, §4

For the next assay, the system named is common chickweed. Briefly: Test F pre-/postemergence herbicide test. The class given is in vivo, Stellaria media.
Text: as §3, §4

In the next assay the test system is wild mustard. Briefly: Test F pre-/postemergence herbicide test. Type of assay: in vivo, Sinapis arvensis.
Text: as §3, §4

A further assay deals with pigweed. Briefly: Test F pre-/postemergence herbicide test. The class given is in vivo, Amaranthus retroflexus.
Text: as §3, §4

In another assay the test system is hairy beggarticks. Description: Test E pre-/postemergence herbicide test. Type of assay: in vivo, Bidens radiata. To be noted: Preemergence.
Text: as §1, §2

[3] abbreviates: Preemergence, 62 g ai/ha, scale 0 to 100.
The mark [4] stands for this setting: Preemergence, 250 g ai/ha, scale 0 (no effect) to 100 (complete control).
The mark [5] stands for this setting: Preemergence, 500 g ai/ha, scale 0 (no effect) to 100 (complete control).
Where [6] appears, read: 250 g ai/ha, scale 0 (no effect) to 100 (complete control).
Where [7] appears, read: 375 g ai/ha, scale 0 (no effect) to 100 (complete control).
[8] abbreviates: 500 g ai/ha, scale 0 (no effect) to 100 (complete control).

As for `CCNC(=O)c1ccc(F)c(NC(=O)c2cc(C(C)(C)C)nn2CC)c1` [Compound 2, 3-(1,1-dimethylethyl)-1-ethyl-N-[5-[(ethylamino)carbonyl]-2-fluorophenyl]-1H-pyrazole-5-carboxamide], the “Plant response rating, Kochia” value is recorded as 90 in the assay on kochia [1] (setting [3]); 100 with kochia [1] (Preemergence, 125 g ai/ha, scale 0 (no effect) to 100 (complete control)); 100 with kochia [1] (setting [4]); 100 with kochia [1] (setting [5]); 100 in the assay on kochia [1] (postemergence, 125 g ai/ha, scale 0 to 100).

As for `CCn1nc(C(C)(C)C)cc1C(=O)Nc1cccc(C(N)=O)n1` [Compound 162, 6-[[[3-(1,1-dimethylethyl)-1-ethyl-1H-pyrazol-5-yl]carbonyl]amino]-2-pyridinecarboxamide], the “Plant response rating (0-100), Bluegrass” value is listed as 60 with annual blugrass (Postemergence, 62 g ai/ha); 60 in the assay on annual blugrass (Postemergence, 125 g ai/ha); 90 in the assay with annual blugrass (Postemergence, 250 g ai/ha); 100 in the assay on annual blugrass (Postemergence, 500 g ai/ha); 100 with annual blugrass (Preemergence, 62 g ai/ha); 100 in the assay with annual blugrass (Preemergence, 125 g ai/ha). Further, the “Plant response rating (0-100), Bluegrass” value in the assay on annual blugrass (Preemergence, 250 g ai/ha) amounted to 100; in the assay with annual blugrass (Preemergence, 500 g ai/ha) it was 100. In addition, the “Plant response rating (0-100), Kochia” value in the assay with kochia [2] (Postemergence, 62 g ai/ha) was found to be 100; with kochia [2] (Postemergence, 125 g ai/ha), 100; with kochia [2] (Postemergence, 250 g ai/ha), 100; in the assay with kochia [2] (Postemergence, 500 g ai/ha), 100; with kochia [2] (Preemergence, 62 g ai/ha), 60; in the assay with kochia [2] (Preemergence, 125 g ai/ha), 100. The “Plant response rating (0-100), Kochia” value in the assay on kochia [2] (Preemergence, 250 g ai/ha) came out at 100; in the assay with kochia [2] (Preemergence, 500 g ai/ha), 100. The “Plant response rating (0-100), Barley, Winter” value (shortened to “Plant response rating … Winter”) in the assay on winter barley (Postemergence, 62 g ai/ha) worked out at 40; in the assay with winter barley (Postemergence, 125 g ai/ha) it was 50; with winter barley (Postemergence, 250 g ai/ha), 80; with winter barley (Postemergence, 500 g ai/ha), 80; with winter barley (Preemergence, 62 g ai/ha) it was 70; in the assay on winter barley (Preemergence, 125 g ai/ha) it was 100. In addition, the “Plant response rating … Winter” value was determined as 100 in the assay with winter barley (Preemergence, 250 g ai/ha) and 100 in the assay on winter barley (Preemergence, 500 g ai/ha). Moreover, the “Plant response rating (0-100), Chickweed” value in the assay with common chickweed (Postemergence, 62 g ai/ha) was found to be 70; in the assay with common chickweed (Postemergence, 125 g ai/ha), 80; in the assay with common chickweed (Postemergence, 250 g ai/ha), 100; in the assay with common chickweed (Postemergence, 500 g ai/ha) it was 100; with common chickweed (Preemergence, 62 g ai/ha), 100; with common chickweed (Preemergence, 125 g ai/ha), 100. The “Plant response rating (0-100), Chickweed” value is 100 with common chickweed (Preemergence, 250 g ai/ha) and 100 in the assay on common chickweed (Preemergence, 500 g ai/ha). The “Plant response rating, Kochia” value worked out at 60 with kochia [1] (setting [3]); 70 with kochia [1] (Preemergence, 125 g ai/ha, scale 0 to 100); 95 with kochia [1] (setting [4]); 95 with kochia [1] (setting [5]). The “Plant response rating (0-100), Mustard, Wild” value (from here on “Plant response rating … Wild”) in the assay on wild mustard (Postemergence, 62 g ai/ha) stood at 60; in the assay with wild mustard (Postemergence, 125 g ai/ha), 80; in the assay on wild mustard (Postemergence, 250 g ai/ha), 100; in the assay with wild mustard (Postemergence, 500 g ai/ha), 100; in the assay on wild mustard (Preemergence, 62 g ai/ha) it was 80; with wild mustard (Preemergence, 125 g ai/ha), 80. The “Plant response rating … Wild” value in the assay on wild mustard (Preemergence, 250 g ai/ha) is reported as 100; in the assay on wild mustard (Preemergence, 500 g ai/ha), 100. The “Plant response rating (0-100), Pigweed” value in the assay with pigweed (Postemergence, 62 g ai/ha) is 70; in the assay on pigweed (Postemergence, 125 g ai/ha), 90; in the assay with pigweed (Postemergence, 250 g ai/ha), 100; in the assay with pigweed (Postemergence, 500 g ai/ha), 100; in the assay with pigweed (Preemergence, 62 g ai/ha), 90; in the assay with pigweed (Preemergence, 125 g ai/ha), 100. Besides, the “Plant response rating (0-100), Pigweed” value was determined as 100 with pigweed (Preemergence, 250 g ai/ha) and 100 in the assay with pigweed (Preemergence, 500 g ai/ha).

In the case of `CCc1nn(C(C)(C)C)cc1C(=O)Nc1cc(C(=O)N(CC)CC)ccc1F` [Compound 223], the “Plant response rating (0-100), Bluegrass” value in the assay with annual blugrass (Postemergence, 125 g ai/ha) amounted to 50; in the assay on annual blugrass (Preemergence, 125 g ai/ha), 100. Moreover, the “Plant response rating (0-100), Kochia” value in the assay with kochia [2] (Postemergence, 125 g ai/ha) was found to be 75; in the assay with kochia [2] (Preemergence, 125 g ai/ha), 75. The “Plant response rating … Winter” value in the assay with winter barley (Postemergence, 125 g ai/ha) is 0; in the assay on winter barley (Preemergence, 125 g ai/ha), 25. The “Plant response rating (0-100), Chickweed” value was 60 with common chickweed (Postemergence, 125 g ai/ha) and 100 with common chickweed (Preemergence, 125 g ai/ha). Moreover, the “Plant response rating … Wild” value with wild mustard (Postemergence, 125 g ai/ha) is 65; with wild mustard (Preemergence, 125 g ai/ha), 100. For the same molecule, the “Plant response rating (0-100), Pigweed” value with pigweed (Postemergence, 125 g ai/ha) worked out at 65; in the assay on pigweed (Preemergence, 125 g ai/ha), 100.

As to `CCc1nn(C(C)(C)C)cc1C(=O)Nc1cc(C(=O)N(C)C)ccn1` [Compound 293], the “Plant response rating, Beggarticks, Hairy” value turned out to be 100 with hairy beggarticks (125 g ai/ha, scale 0 to 100); 100 with hairy beggarticks (setting [6]); 100 in the assay with hairy beggarticks (setting [7]); 100 in the assay on hairy beggarticks (setting [8]).

On to `CCn1nc(C(C)(C)C)cc1C(=O)Nc1cc(C(=S)N(C)C)ccc1F` [Compound 294], for which the “Plant response rating, Beggarticks, Hairy” value amounted to 100 in the assay with hairy beggarticks (125 g ai/ha, scale 0 to 100); 100 in the assay on hairy beggarticks (setting [6]); 100 in the assay on hairy beggarticks (setting [7]); 100 in the assay on hairy beggarticks (setting [8]).

On to `CCn1nc(C2(C)CC2)cc1C(=O)Nc1cc(C(=O)N(C)C)ccc1F` [Compound 299], for which the “Plant response rating, Beggarticks, Hairy” value with hairy beggarticks (62 g ai/ha, scale 0 to 100) was determined as 50; in the assay with hairy beggarticks (125 g ai/ha, scale 0 to 100) it was 100; in the assay on hairy beggarticks (setting [6]), 100; in the assay on hairy beggarticks (setting [8]), 100.
